Results from US3930838A, “S-benzyl-N,N-disec-butylthiocarbamate and its use as a rice field herbicide and a rice growth stimulant” (priority 1970, dated 1976).

Assays:
Echinocloa spp. [1] = test: Post emergence hothouse test No. 2 (Example 16); assay type: in vivo; details: 4, 6, and 8 kg./ha., 26 days; plants max. 10 cm. at treatment
Method: A set of boxes having a 1,000 cm^2 internal surface was prepared in a hothouse according to the method described in Example 9. The boxes were sowed with Echinocloa spp. (70 seeds per box). After saturation of the soil, and as soon as the infesting plants emerged from the soil, the boxes were flooded with a 7 cm. layer of water. When the plants reached a maximum height of 3-4 cm., the treatment was effected by spraying the flooding water surfaces with hydroacetone solutions according to the modalities employed in Example 9. 3 days after the treatment, the following results were observed:
A second test was carried out in the same manner as Test No. 1 except that the treatment took place when the infesting plants had reached a maximum of 10 cm. 26 days after such treatment, the following was observed: […]

Barnyard grass = test: Rice seed treatment, 5000 square meter field plots, test No. 3, barnyard grass (Example 17); assay type: in vivo; details: 67 days; for Barnyard grass tiller number: single 1 m^2 testing area
Method: A further test was carried out outdoors on loam soil on plots of about 5000 square meters surface.
After flooding each plot, seeds treated as in Test No. […] In all cases, the seen quantity was 150 kg./ha. 67 days after sowing, the results were gathered on 5 representative testing areas of 1 square meter each for each dosage level.

[2] = Solubility and volatility; assay type: physicochemical
[3] = Acute oral toxicity, mice; details: mouse, in vivo
rice [4] = test: Rice seed surface treatment, pots, test No. 1 (Example 17); assay type: in vivo, rice cv. RIBE; details: 41 days
Method: A set of glass pots was prepared as described in Example 7. Immediately after such preparation the pots were filled with water to a level of 7 cm. above the ground surface. Cv. RIBE rice seeds, which were previously allowed to swell in water, were divided into four groups. Each group was treated, by application with a micro syringe with a quantity of M3432 composition; containing 70% active product, corresponding to the following doses of a.p. per ha.: 0, 2.5, 5, and 10 kg. 15 seeds coated with the compound were placed into each pot and subsequently covered with a thin layer of earth. After 41 days, the following results were obtained.

Echinocloa spp. [5] = test: Post emergence hothouse test No. 1 (Example 16); assay type: in vivo; details: 4, 6, and 8 kg./ha., 3 days; plants 3-4 cm. at treatment
Method: A set of boxes having a 1,000 cm^2 internal surface was prepared in a hothouse according to the method described in Example 9. The boxes were sowed with Echinocloa spp. (70 seeds per box). After saturation of the soil, and as soon as the infesting plants emerged from the soil, the boxes were flooded with a 7 cm. layer of water. When the plants reached a maximum height of 3-4 cm., the treatment was effected by spraying the flooding water surfaces with hydroacetone solutions according to the modalities employed in Example 9. 3 days after the treatment, the following results were observed: […]

rice [6] = test: Hothouse test on rice in flooded boxes, 27 days (Example 9a); assay type: in vivo, rice cv. RIBE
Description: A test was arranged in a hothouse on a set of boxes having a 1,000 cm^2 internal surface. 18 Kg. of sieved rice field earth were put into each box. After leveling, the earth surfaces of each of a set of six boxes were uniformly sprayed with hydroacetone solutions containing, respectively, 0, 0.5, 0.75, 1, 1.25, and 1.5% of M3432. 20 Cc. of solution was sprayed into each box, corresponding to 0, 10, 15, 20, 25, and 30 kg./ha., respectively. Each box was flooded with a 10 cm. water layer measured from the earth surface. The sowing was carried out immediately afterwards with a pre-germinated (cv) RIBE rice seed, employing a quantity of 40 seeds per box.
During the test, the hothouse temperature ranged from +10°to +28°C. 27 Days after the treatment, all the rice plants were recovered from each box and subjected to biometric controls.

rats = details: os, literature values; cited from earlier work
rice [7] = test: Post emergence outdoor plot test No. 3, rice (Example 16); assay type: in vivo; details: 45 days, emulsifiable oil
Method: Some plots, 12 m^2 each, delimited by artificial levees, were prepared outdoors. AFter soil working and grading, the plots were sowed with Echinocloa spp. on May 18, 1970 and then flooded to a height of 10 cm. with water on May 20, 1970. The same day, rice was sowed in quantities corresponding to 150 kg. of seed per ha. Both rice and Echinocloa emerged from the soil 5 days after the flooding.
When the barnyard grass reached an average height of 12-14 cm., the treatment was effected by uniformly spraying the flooded water surface.
Products being tested: M3432 and molinate, in emulsifiable oil base.
Doses: 0, 4, and 6 kg./ha.
The first effects on Echinocloa spp. were noticed for both products 7 days after treatment, 45 Days after treatment the following was observed: […]

CCC(C)N(C(=O)SCc1ccccc1)C(C)CC (stereo not shown) [M3432, S-benzyl-N,N-disec.butylthiocarbamate]
Shoot (Echinocloa spp. [1]): 0 cm.
Stand (Echinocloa spp. [1]): 0%
Barnyard grass tiller number (Barnyard grass; 3.4 kg./ha.): 0 (no.)/m^2
Barnyard grass tiller number, average on 5 testing areas (Barnyard grass; 3.6 kg./ha.): 0 (no.)/m^2
Barnyard grass tiller number, average on 5 testing areas (Barnyard grass; 4.0 kg./ha.): 0 (no.)/m^2
Barnyard grass tiller number (Barnyard grass; 4.0 kg./ha.): 0 (no.)/m^2
Volatility [2]: not volatile
Solubility in organic solvents ([2]; benzene, ether, heptane, methanol, cyclohexanone, acetone, methyl chloride, dichloroethane): soluble
Solubility in water ([2]; water): practically insoluble
LD50 [3]: 8000 mg/kg
Main root (rice [4]; 2.5 kg./ha.): 8.93 cm.
Secondary roots (rice [4]; 2.5 kg./ha.): 3.90 no.
Shoot (rice [4]; 2.5 kg./ha.): 17.16 cm.
Stand (rice [4]; 2.5 kg./ha.): 68.80%
Main root (rice [4]; 5 kg./ha.): 8.48 cm.
Secondary roots (rice [4]; 5 kg./ha.): 4.02 no.
Shoot (rice [4]; 5 kg./ha.): 16.83 cm.
Stand (rice [4]; 5 kg./ha.): 62.20%
Main root (rice [4]; 10 kg./ha.): 10.07 cm.
Secondary roots (rice [4]; 10 kg./ha.): 4.23 no.
Shoot (rice [4]; 10 kg./ha.): 16.92 cm.
Stand (rice [4]; 10 kg./ha.): 62.20%
Shoot (Echinocloa spp. [5]): 0 cm.
Stand (Echinocloa spp. [5]): 0%
Main root (rice [6]; 10 kg./ha.): 4.82 cm.
Main root, % of control (rice [6]; 10 kg./ha.): 150 % of control
Secondary roots (rice [6]; 10 kg./ha.): 2.82 No.
Secondary roots, % of control (rice [6]; 10 kg./ha.): 127 % of control
Shoot (rice [6]; 10 kg./ha.): 11.70 cm.
Shoot, % of control (rice [6]; 10 kg./ha.): 198 % of control
Sprouted plants (rice [6]; 10 kg./ha.): 52.5%
Sprouted plants, % of control (rice [6]; 10 kg./ha.): 131 % of control
Main root (rice [6]; 15 kg./ha.): 4.06 cm.
Main root, % of control (rice [6]; 15 kg./ha.): 131 % of control
Secondary roots (rice [6]; 15 kg./ha.): 2.95 No.
Secondary roots, % of control (rice [6]; 15 kg./ha.): 133 % of control
Shoot (rice [6]; 15 kg./ha.): 11.99 cm.
Shoot, % of control (rice [6]; 15 kg./ha.): 203 % of control
Sprouted plants (rice [6]; 15 kg./ha.): 57.5%
Sprouted plants, % of control (rice [6]; 15 kg./ha.): 144 % of control
Main root (rice [6]; 20 kg./ha.): 8.29 cm.
Main root, % of control (rice [6]; 20 kg./ha.): 267 % of control
Secondary roots (rice [6]; 20 kg./ha.): 4.42 No.
Secondary roots, % of control (rice [6]; 20 kg./ha.): 199 % of control
Shoot (rice [6]; 20 kg./ha.): 12.15 cm.
Shoot, % of control (rice [6]; 20 kg./ha.): 205 % of control
Sprouted plants (rice [6]; 20 kg./ha.): 77.5%
Sprouted plants, % of control (rice [6]; 20 kg./ha.): 193 % of control
Main root (rice [6]; 25 kg./ha.): 6.77 cm.
Main root, % of control (rice [6]; 25 kg./ha.): 218 % of control
Secondary roots (rice [6]; 25 kg./ha.): 4.66 No.
Secondary roots, % of control (rice [6]; 25 kg./ha.): 210 % of control
Shoot (rice [6]; 25 kg./ha.): 16.77 cm.
Shoot, % of control (rice [6]; 25 kg./ha.): 283 % of control
Sprouted plants (rice [6]; 25 kg./ha.): 85.0%
Sprouted plants, % of control (rice [6]; 25 kg./ha.): 212 % of control
Main root (rice [6]; 30 kg./ha.): 8.84 cm.
Main root, % of control (rice [6]; 30 kg./ha.): 285 % of control
Secondary roots (rice [6]; 30 kg./ha.): 4.90 No.
Secondary roots, % of control (rice [6]; 30 kg./ha.): 220 % of control
Shoot (rice [6]; 30 kg./ha.): 14.59 cm.
Shoot, % of control (rice [6]; 30 kg./ha.): 246 % of control
Sprouted plants (rice [6]; 30 kg./ha.): 87.5%
Sprouted plants, % of control (rice [6]; 30 kg./ha.): 219 % of control

CCSC(=O)N1CCCCCC1 [Molinate, ethyl-1-hexamethylene-imino-carbothiolate, reference compound]
Acute toxicity LD50 (rats): 500 to 725 mg/kg
Effect on rice (rice [7]; 4 kg./ha.): Stronger than the control
Effect on rice (rice [7]; 6 kg./ha.): Stronger than the control
